Results published in patent publication US20060251654A1, “Method for treatment of malignant and infectious chronic diseases” (Centro de Inmunologia Molecular, priority 2001, published 2006).

Test system: syngeneic tumor 3LL-D122
Test: Survival of mice bearing 3LL-D122 tumor after surgery of the primary tumor (Examples 5 and 6)
Format: in vivo, C57BL/6 mice
Conditions: EGF-p64 vaccine i.m., two weeks later Cyclophosphamide 50 mg/kg i.v., three days later second vaccine dose; versus vaccine plus saline or Cyclophosphamide only
Method: C57BL/6 mice were injected with the syngeneic tumor 3LL-D122 (200,000 cells/animal) in the right plantar pad. The evolution of the tumor was evaluated by measurement of its diameters every 3 days and surgery of the primary tumor was practiced (amputation) when it reached 8-9 mm of diameter. Mice survival, which is depended of spontaneous lung metastases was measured.
Two days after the inoculation of the tumor mice were injected by intramuscular route with a vaccine that contains 4 μg of human EGF conjugated to the p64 protein (EGF-p64) in Montanide ISA 51 (100 μl final volume) and two weeks later they were treated with 50 mg/kg of Cyclophosphamide by intravenous route or with saline solution. After three days, the mice were re-immunized by intramuscular route with a second dose of the EGF-p64 vaccine.
An animal group just was treated by intravenous route with 50 mg/kg of Cyclophosphamide and another one was not treated.
C57BL/6 mice were injected with the syngenic tumor 3LL-D122 as it is described in Example 5.
Two days after to the inoculation of the tumor, mice were injected by intramuscular route with a vaccine that contains 4 μg of human EGF conjugated to the P64 protein (EGF-p64) in Montanide ISA 51 (100 μl final volume) and two weeks later they were treated with 1 mg of anti-CD25 monoclonal antibody by intravenous route or with saline solution as control. […]

O=P1(N(CCCl)CCCl)NCCCO1 (stereo not shown) [Cyclophosphamide]
mice survival: increases the mice survival
